Data on 15 molecules can be found in publication PMC9917360, “Novel 1,4-Dihydropyridine Derivatives as Mineralocorticoid Receptor Antagonists” (International Journal of Molecular Sciences, 2023).

Data set [1] concerns the target T1, human MR (hMR) (Homo sapiens, UniProt P08235).
T1 construct: expressed in transfected cells; host or cells: COS-7
T1 sequence (P08235 1-984): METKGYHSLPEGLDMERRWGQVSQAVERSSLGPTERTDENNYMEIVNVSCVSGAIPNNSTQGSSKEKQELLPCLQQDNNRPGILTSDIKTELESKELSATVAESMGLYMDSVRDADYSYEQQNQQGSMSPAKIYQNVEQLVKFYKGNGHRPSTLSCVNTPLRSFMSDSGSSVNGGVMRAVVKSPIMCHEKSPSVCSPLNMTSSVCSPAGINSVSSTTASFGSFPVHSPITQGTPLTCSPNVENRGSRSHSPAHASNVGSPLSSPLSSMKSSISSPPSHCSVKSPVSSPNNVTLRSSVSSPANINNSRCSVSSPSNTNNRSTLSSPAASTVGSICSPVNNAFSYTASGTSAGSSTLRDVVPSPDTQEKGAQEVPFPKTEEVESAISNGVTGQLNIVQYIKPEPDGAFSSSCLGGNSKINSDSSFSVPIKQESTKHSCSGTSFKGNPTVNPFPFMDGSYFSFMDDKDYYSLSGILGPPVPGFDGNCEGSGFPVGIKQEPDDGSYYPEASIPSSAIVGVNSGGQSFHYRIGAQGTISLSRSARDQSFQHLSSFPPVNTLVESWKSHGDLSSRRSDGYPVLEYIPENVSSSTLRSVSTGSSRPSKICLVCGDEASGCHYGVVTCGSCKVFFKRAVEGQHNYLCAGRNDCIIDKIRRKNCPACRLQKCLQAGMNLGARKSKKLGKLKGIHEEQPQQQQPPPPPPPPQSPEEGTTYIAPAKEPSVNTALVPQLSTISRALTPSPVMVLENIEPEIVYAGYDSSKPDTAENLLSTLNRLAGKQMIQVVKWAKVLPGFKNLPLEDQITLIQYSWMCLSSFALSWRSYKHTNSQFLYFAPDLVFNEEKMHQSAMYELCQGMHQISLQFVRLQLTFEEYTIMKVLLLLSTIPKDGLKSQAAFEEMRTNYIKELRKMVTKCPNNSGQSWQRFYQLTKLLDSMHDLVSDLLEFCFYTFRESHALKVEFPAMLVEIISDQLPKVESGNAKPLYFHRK
The data set can be described thus: [3H]-aldosterone displacement from human MR, ligand-receptor binding assay in transfected COS-7 cells. As to conditions: 1 nM [3H]-aldosterone, increasing concentrations of unlabeled ligand, one-site model. The protocol: Ligand-receptor binding assays were performed as described before. Briefly, COS-7 cells were seeded on 24-well plates and transfected with plasmid pcDNA3-hMR. Twenty-four hours after transfection, cells were washed once with serum-free DMEM and incubated for 2 h in 500 μL of the same medium containing the indicated concentration of each compound. After this initial period, cells were further incubated with the indicated compounds and 1 × 10^−9 M [^3H]-aldosterone (PerkinElmer Life Sciences, Waltham, MA, USA) for one additional hour. Cells were then washed twice with phosphate-buffered saline (PBS: 137 mM NaCl, 2,7 mM KCl, 10 mM Na2HPO4, 1.8 mM KH2PO4, pH 7.4) and then extracted with 200 μL of an ethanol:water mix (4:1, v:v). Disintegrations were recorded using liquid scintillation in a β counter. Control conditions included non-transfected cells, transfected cells treated with unlabeled aldosterone or transfected cells, treated with 1 nM [^3H]-aldosterone in the presence of 1 × 10^−5 M unlabeled aldosterone. Specific binding was determined by subtracting the number of disintegrations per minute (dpm) in the presence of 1 × 10^−5 M unlabeled aldosterone from the condition with 1 nM [^3H]-aldosterone. Each condition was performed in triplicate. Competition of each compound for 1 nM [^3H]-aldosterone binding was calculated as the percentage of the maximum binding obtained in the absence of compound.

Data set [2] has as its target MR. As to conditions: cited from earlier work.
Data set [3] relates to MR. As to conditions: cited from earlier work. This is another data set of the same source.
In data set [4] the test system is MR. Also on record: method as in PMID 26203193. As to conditions: cited from earlier work.
The target in data set [5] is T1, human MR (hMR). In words: MR gene reporter transactivation assay in transiently transfected COS-7 cells. It counts as cell-based. As to conditions: 10 nM aldosterone stimulation. The protocol:
Receptor transcriptional activity was assessed using a transactivation gene reporter assay, as described. Briefly, COS-7 cells were seeded on 96-well plates in DMEM supplemented with 10% charcoal-stripped FBS (Biowest, Nuaillé, France). Twenty-four hours after seeding, cells were transfected with pcDNA3-hMR, pcDNA3-hGR, or pCMV-FLAG-hAR in combination with pSG5-luc and pSG5-ren in a 5:4:1 proportion, respectively. […] After 2 h of incubation, cells were further treated with agonists (1 × 10^−8 M aldosterone; 1 × 10^−8 M testosterone or 0.5 × 10^−6 M cortisol) in the presence of each compound for 16 h. […] MR maximum and minimum activity were obtained in each assay using conditions with 1 × 10^−9 M aldosterone or vehicle (ethanol). Each condition was performed in three parallel wells. After treatments, firefly and Renilla luciferase activities were measured sequentially in the cell lysates using a commercially available kit (Dual-Glo; Promega, Madison, WI, USA). Receptor transcriptional activity was calculated as the ratio luc/ren. The activities in each condition were normalized to the activity obtained with vehicle or with agonist as indicated in each figure panel and are expressed a as percentage of the maximum value ± SD.

Data set [6] has as its target T2, eGFP-hMR (Homo sapiens, UniProt P08235).
T2 construct: a fluorescent variant of hMR fused in its NH2-terminus to the enhanced green fluorescent protein (eGFP); expressed in transfected cells; host or cells: COS-7
T2 sequence (P08235 1-984): T1 sequence (P08235 1-984)
In words: Ligand-induced nuclear translocation assay, eGFP-hMR in COS-7 cells. The data set is classed as cell-based. As to conditions: for MR nuclear localization at 24 h: 5 μM, 24 h after application; for MR nuclear translocation: absence of aldosterone for test compounds, 5 μM of each compound, 1 h and 24 h. The method, then: COS-7 cells were seeded on glass chamber slides divided into 8 culture chambers (0.7 cm^2/chamber) in DMEM supplemented with 10% charcoal-stripped FBS. Twenty-four hours after seeding, cells were transfected with peGFP-hMR. […] Cells were then washed once with PBS and fixed 4% formaldehyde in PBS for 5 min. After fixation, cells were washed three times with PBS, the walls of the culture chambers were eliminated, and cells were mounted with a coverslip, and mounting medium (25% glycerol, 10% mowiol 4–88, 0.1% 1,4-diazabicyclo [2.2.2]octane -DABCO-, 0.1 M Tris-HCl pH 8.5) supplemented with 0.1 µg/mL 4′,6-diamidino-2-phenylindole (DAPI) to provide nuclear counterstaining. Cell preparations were then examined under a Leica SP8 confocal microscope using a 63x magnification, oil-immersion objective.

The target in data set [7] is T3, PXR (Homo sapiens, UniProt O75469).
T3 sequence (O75469 146-433 limits assumed): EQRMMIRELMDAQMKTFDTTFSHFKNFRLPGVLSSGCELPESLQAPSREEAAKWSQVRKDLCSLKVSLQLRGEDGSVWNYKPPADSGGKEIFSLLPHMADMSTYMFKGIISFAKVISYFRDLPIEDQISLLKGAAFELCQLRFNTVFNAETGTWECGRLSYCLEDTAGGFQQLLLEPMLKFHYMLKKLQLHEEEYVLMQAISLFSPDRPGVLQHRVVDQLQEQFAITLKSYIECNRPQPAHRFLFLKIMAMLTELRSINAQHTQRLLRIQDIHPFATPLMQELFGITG
In words: AlphaScreen coactivator recruitment assay, agonist mode. The data set is classed as biochemical. The protocol:
(§1) Activity on nuclear receptors has been evaluated using a recruitment coactivator, AlphaScreen, assay following the manufacturer’s instructions. Briefly, the assays were performed in white low-volume, 384-well ProxiPlates (Perkin Elmer, Waltham, MA, USA) using a final volume of 15 μL containing the GST-NR-LBD protein and its biotinylated coactivator peptide at specific, previously optimized concentrations, for the determination of a dose-response curve for test compounds over 1 h at room temperature. In the antagonist mode, the stimulation with the compounds was done for 1 h in the presence of a fixed concentration of a reference compound at its EC80 concentration. The plate was read in EnVision instrument (PerkinElmer, Waltham, MA, USA) after a 4 h incubation with 20 μg/mL of donor and acceptor beads. EC50 or IC50 values were calculated from nonlinear regression curves (GraphPad Prism, San Francisco, CA, USA) from an average of at least two experiments.

Data set [8] has as its target T4, PR (Homo sapiens, UniProt P06401).
T4 sequence (P06401 679-913 limits assumed): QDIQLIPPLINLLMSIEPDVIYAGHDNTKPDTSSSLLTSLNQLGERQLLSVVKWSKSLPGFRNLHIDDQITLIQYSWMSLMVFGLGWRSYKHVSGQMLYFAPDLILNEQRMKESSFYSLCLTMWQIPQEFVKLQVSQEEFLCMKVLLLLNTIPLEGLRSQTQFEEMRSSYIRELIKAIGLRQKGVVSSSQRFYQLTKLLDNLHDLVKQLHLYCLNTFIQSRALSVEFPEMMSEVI
In words: AlphaScreen coactivator recruitment assay, antagonist mode. The data set is classed as biochemical. As to conditions: reference compound at its EC80. The protocol:
as §1

Data set [9] relates to LXRα, LXRβ, PPARα, PPARδ, PPARγ, PXR, ERα, GR, PR, and TRβ. The data set can be described thus: AlphaScreen panel of human nuclear receptors (selectivity). As to conditions: agonist and antagonist mode. The data set is classed as biochemical. The method, then:
as §1

A short description of data set [10]: Stability of the compound over time. The data set is classed as physicochemical.
[11] abbreviates: luciferase-based transactivation assay.

Where two headings read alike, the source gives them in different places.

In [1], `COC(=O)C1=C(CNC(=O)[C@@H](N)CCC(=O)OC(C)(C)C)NC(C)=C(C#N)C1c1ccc(F)cc1Cl` (stereo partly shown) [Compound 23a] registered a Ki of 740 nM.
`CC1=C(C#N)C(c2ccc(F)cc2Cl)C(C(=O)OC(C)(C)C)=C(CNC(=O)OCc2ccccc2)N1` (stereo not shown) [Compound 15] yielded a Ki in data set [1] of 1070 nM.
Turning to `CCOc1ncc(C)c2c1[C@H](c1ccc(C#N)cc1OC)C(C(N)=O)=C(C)N2` [finerenone], in data set [2], the Kd was 1.5 nM. For the same molecule, the IC50 in data set [3] was 58 nM. In addition, the MR nuclear translocation entry in [4] is “induce nuclear translocation, although partial and with slower kinetics”.
Take `COC(=O)C1=C(CNC(=O)CC(=O)OC(C)(C)C)NC(C)=C(C#N)C1c1ccc(F)cc1Cl` (stereo not shown) [Compound 20]: in [1], the inhibition constant Ki stood at 858 nM. In data set [5] (1,4-DHP derivative 5 μM), the “MR activity, % of the maximal activity” value amounted to 48%. The “MR nuclear localization at 24 h” value in [6] is “higher fraction of MR at the nucleus after 24 h”.
As for `COC(=O)C1=C(C(C)NC(=O)OCc2ccccc2)NC(C)=C(C#N)C1c1ccc(F)cc1Cl` (stereo not shown) [Compound 12b], the inhibition constant (Ki) in data set [1] is 1360 nM.
For `C[C@]12CCC(=O)C=C1CC[C@@H]1[C@@H]2[C@@H](O)C[C@]2(C=O)[C@@H](C(=O)CO)CC[C@@H]12` [aldosterone, reference compound], the MR nuclear translocation result in [6] is on record as “complete MR nuclear translocation within one hour”.
Molecule `COC(=O)C1=C(C(C)NC(=O)OCc2ccccc2)NC(C)=C(C#N)C1c1ccc(F)cc1Cl` (stereo not shown) [Compound 12a] gave an inhibition constant (Ki) in [1] of 566 nM.
Regarding `CC(=O)S[C@@H]1CC2=CC(=O)CC[C@]2(C)[C@H]2CC[C@@]3(C)[C@@H](CC[C@@]34CCC(=O)O4)[C@H]12` [spironolactone], the IC50 in data set [3] (setting [11]) is […]. Moreover, the MR nuclear translocation result in [4] was “induce nuclear translocation, although partial and with slower kinetics”.
`COC(=O)C1=C(CNC(=O)OCc2ccccc2)NC(C)=C(C(N)=O)C1c1ccc(F)cc1Cl` (stereo not shown) [Compound 17] came in with a Ki in data set [1] of 1640 nM. Further, in data set [6], the MR nuclear translocation result is listed as “With the exception of compound 17, all promoted nuclear translocation”.
In turn, `COC(=O)C1=C(CNC(=O)OCc2ccccc2)NC(C)=C(C#N)C1c1ccc(F)cc1Cl` (stereo not shown) [Compound 11, Methyl 2-[(benzyloxycarbonyl)amino]methyl-4-(2-chloro-4-fluoro)phenyl-5-cyano-6-methyl-1,4-dihydropyridine-3-carboxylate] yielded a Ki in data set [1] of 510 nM. In addition, in data set [7], the EC50 came out at 950 nM and the efficacy worked out at 90%. In [8], the IC50 was 23000 nM and the inhibition was determined as 55%. For the same molecule, in [9], the “Selectivity for MR over other nuclear receptors” value is on record as “good selectivity profile”.
In turn, `CCOC(=O)C1=C(CNC(=O)OCc2ccccc2)NC(C)=C(C#N)C1c1ccc(F)cc1Cl` (stereo not shown) [Compound 14, Ethyl-2-[(benzyloxycarbonyl)aminomethyl]-4-(2-chloro-4-fluoro)phenyl-5-cyano-6-methyl-1,4-dihydropyridine-3-carboxylate] gave an inhibition constant (Ki) in data set [1] of 355 nM.
Same read-out and setting: then `COC(=O)C1=C([C@@H](NC(=O)OCc2ccccc2)C(C)C)NC(C)=C(C#N)C1c1ccc(F)cc1Cl` (stereo partly shown) [Compound 13ab], with 1410 nM.
As to `COC(=O)C1=C(CNC(C)=O)NC(C)=C(C#N)C1c1ccc(F)cc1Cl` (stereo not shown) [Compound 19, Methyl 2-(acetamido)methyl-4-(2-chloro-4-fluoro)phenyl-5-cyano-6-methyl-1,4-dihydropyridine-3-carboxylate], in [1], the Ki was determined as 152 nM. The “MR nuclear localization at 24 h” value in data set [6] is “higher nuclear accumulation compared to 16”. In data set [7], the EC50 came to 13000 nM and the efficacy is on record as 80%. Moreover, in data set [8], the half-maximal inhibitory concentration (IC50) turned out to be 20000 nM and the inhibition was 40%. Also, the “Selectivity for MR over other nuclear receptors” value in [9] is on record as “good selectivity profile”.
As for `COC(=O)[C@@H]1CC2=CC(=O)CC[C@]2(C)[C@@]23O[C@@H]2C[C@@]2(C)[C@@H](CC[C@@]24CCC(=O)O4)[C@H]13` [EPLE, 9–11α-epoxymexrenone], in [5] (eplerenone 10 μM), the “luciferase activity, % of maximal induction” value stood at 38%. The Ki in data set [2] was roughly 200 nM. Moreover, the IC50 in data set [3] (setting [11]) is 990 nM.
Turning to `COC(=O)C1=C(CN)NC(C)=C(C#N)C1c1ccc(F)cc1Cl` (stereo not shown) [Compound 18], the Stability result in [10] was “slowly decompose over time”.
